The values below come from ChEMBL document CHEMBL1697821, “Development of a phospholipidosis database and predictive quantitative structure-activity relationship (QSAR) models” (Toxicol Mech Methods, 2008).

For the data set, the system named is Phospholipidosis. The experiment in a line: Literature-mined public compounds from Kruhlak et al phospholipidosis modelling dataset.
Take `C[C@H]1CCC[C@H](O)CCCCCc2cc(O)cc(O)c2C(=O)O1` [ZERANOL]: the Phospholipidosis entry was “Negative: based on the absence of positive reported data from WMDD”. As for `Cc1cn([C@H]2C[C@H](N=[N+]=[N-])[C@@H](CO)O2)c(=O)[nH]c1=O` [ZIDOVUDINE], the entry is “Negative: confirmed by electron microscopy”. The value for `CN(C)C/C=C(/c1ccc(Br)cc1)c1cccnc1` [ZIMELDINE] was “Positive: strong inducer confirmed by electron microscopy”; that for `O=C1Cc2cc(CCN3CCN(c4nsc5ccccc45)CC3)c(Cl)cc2N1` [ZIPRASIDONE] was “Negative: based on the absence of positive reported data from WMDD”; that for `COc1cccc2c1C(=O)c1c(O)c3c(c(O)c1C2=O)C[C@@](O)(/C(C)=N/NC(=O)c1ccccc1)C[C@@H]3O[C@H]1C[C@H](N)[C@H](O)[C@H](C)O1` [ZORUBICIN] was “Negative: based on the absence of positive reported data from WMDD”.

On to IVERMECTIN, for which the Phospholipidosis entry is “Negative: based on the absence of positive reported data from WMDD”. The value for POLYSORBATE 80 was “Negative: based on the absence of positive reported data from WMDD”.
